Key:
[1] = excess molar enthalpy (molar enthalpy of mixing); xn = mol fraction of the nth substance listed; details: 298.15 K, 101 kPa, Liquid, Calvet calorimetry
[2] = xn = mol fraction of the nth substance listed; details: 298.15 K, 101 kPa, Liquid, Vibrating tube method

BrCCCCCCBr [1,6-dibromohexane] + CCCCOC(=O)CC
Details	excess molar enthalpy, [1] [kJ/mol]	mass density, [2] [kg/m3]
x2 = 0.0686	–	1552.3
x2 = 0.0731	0.028	–
x2 = 0.1212	–	1514.66
x2 = 0.1582	0.049	–
x2 = 0.1829	–	1470.4
x2 = 0.2418	0.057	1427.98
x2 = 0.2995	–	1386.24
x2 = 0.3151	0.05	–
x2 = 0.3861	0.026	–
x2 = 0.4152	–	1302.26
x2 = 0.4485	0.001	–
x2 = 0.4752	–	1258.56
x2 = 0.5064	-0.028	–
x2 = 0.5318	-0.044	–
x2 = 0.5419	-0.045	–
x2 = 0.5954	–	1170.51
x2 = 0.596	-0.06	–
x2 = 0.6527	–	1128.4
x2 = 0.6658	0.067	–
x2 = 0.7123	–	1084.48
x2 = 0.7456	0.066	–
x2 = 0.7652	–	1045.44
x2 = 0.8249	–	1001.25
x2 = 0.834	0.053	–
x2 = 0.8847	–	956.84
x2 = 0.9306	0.022	–
x2 = 0.9365	–	918.31

BrCCCCCCBr [1,6-dibromohexane] + CCCCOC(C)=O
Details	excess molar enthalpy [kJ/mol]	mass density [kg/m3]
[1], x2 = 0.0742	0.034	–
[1], x2 = 0.1664	0.058	–
[1], x2 = 0.27	0.075	–
[1], x2 = 0.3625	0.075	–
[1], x2 = 0.4313	0.063	–
[1], x2 = 0.4863	0.05	–
[1], x2 = 0.5098	0.04	–
[1], x2 = 0.5385	0.031	–
[1], x2 = 0.5631	0.017	–
[1], x2 = 0.5869	0.007	–
[1], x2 = 0.6272	-0.01	–
[1], x2 = 0.6989	-0.022	–
[1], x2 = 0.7827	-0.026	–
[1], x2 = 0.8669	-0.02	–
[1], x2 = 0.9422	-0.01	–
[2], x2 = 0.1369	–	1513.56
[2], x2 = 0.2111	–	1464.63
[2], x2 = 0.2634	–	1429.52
[2], x2 = 0.3292	–	1384.72
[2], x2 = 0.3855	–	1345.64
[2], x2 = 0.4456	–	1303.3
[2], x2 = 0.5046	–	1260.95
[2], x2 = 0.5622	–	1219.05
[2], x2 = 0.6175	–	1178.12
[2], x2 = 0.7334	–	1090.14
[2], x2 = 0.7855	–	1049.66
[2], x2 = 0.8433	–	1003.91
[2], x2 = 0.8909	–	965.75
[2], x2 = 0.9462	–	920.67

BrCCCCCCBr [1,6-dibromohexane] + CCCCOC=O
Details	excess molar enthalpy [kJ/mol]	mass density [kg/m3]
[1], x2 = 0.0858	0.101	–
[1], x2 = 0.1844	0.173	–
[1], x2 = 0.2879	0.237	–
[1], x2 = 0.3755	0.274	–
[1], x2 = 0.4521	0.287	–
[1], x2 = 0.5188	0.282	–
[1], x2 = 0.6009	0.266	–
[1], x2 = 0.6581	0.244	–
[1], x2 = 0.7307	0.208	–
[1], x2 = 0.8078	0.157	–
[1], x2 = 0.8827	0.103	–
[1], x2 = 0.9487	0.056	–
[2], x2 = 0.0793	–	1558.23
[2], x2 = 0.1555	–	1514.85
[2], x2 = 0.2238	–	1474.51
[2], x2 = 0.2952	–	1430.8
[2], x2 = 0.3567	–	1391.77
[2], x2 = 0.4201	–	1350.14
[2], x2 = 0.4813	–	1308.59
[2], x2 = 0.5983	–	1224.92
[2], x2 = 0.6603	–	1178.22
[2], x2 = 0.7628	–	1097.17
[2], x2 = 0.8097	–	1058.36
[2], x2 = 0.854	–	1020.74
[2], x2 = 0.9078	–	973.55

CCCCOC(=O)CCC [butyl butanoate] + BrCCCBr
Details	excess molar enthalpy [kJ/mol]	mass density [kg/m3]
[1], x1 = 0.0478	0.023	–
[1], x1 = 0.1102	0.039	–
[1], x1 = 0.1831	0.044	–
[1], x1 = 0.2568	0.032	–
[1], x1 = 0.3257	0.004	–
[1], x1 = 0.3879	-0.033	–
[1], x1 = 0.4528	-0.068	–
[1], x1 = 0.5333	-0.091	–
[1], x1 = 0.6324	-0.103	–
[1], x1 = 0.7588	-0.094	–
[1], x1 = 0.8755	-0.066	–
[2], x1 = 0.079	–	1834.63
[2], x1 = 0.1205	–	1768.32
[2], x1 = 0.206	–	1641.3
[2], x1 = 0.2513	–	1578.66
[2], x1 = 0.3045	–	1509.31
[2], x1 = 0.356	–	1445.76
[2], x1 = 0.4085	–	1384.26
[2], x1 = 0.4703	–	1315.94
[2], x1 = 0.5404	–	1243.38
[2], x1 = 0.5989	–	1186.32
[2], x1 = 0.7409	–	1059.86
[2], x1 = 0.8162	–	998.93
[2], x1 = 0.8997	–	935.58
[2], x1 = 0.9428	–	904.65

CCCCOC(=O)CCC [butyl butanoate] + BrCCCCBr
Details	excess molar enthalpy [kJ/mol]	mass density [kg/m3]
[1], x1 = 0.0526	0.027	–
[1], x1 = 0.1195	0.049	–
[1], x1 = 0.1947	0.058	–
[1], x1 = 0.2716	0.049	–
[1], x1 = 0.3471	0.023	–
[1], x1 = 0.4134	-0.011	–
[1], x1 = 0.471	-0.049	–
[1], x1 = 0.5005	-0.065	–
[1], x1 = 0.579	-0.086	–
[1], x1 = 0.6761	-0.093	–
[1], x1 = 0.7901	-0.082	–
[1], x1 = 0.9017	-0.051	–
[2], x1 = 0.0459	–	1757.74
[2], x1 = 0.1377	–	1643.47
[2], x1 = 0.1788	–	1594.83
[2], x1 = 0.2814	–	1479.86
[2], x1 = 0.3346	–	1423.4
[2], x1 = 0.3891	–	1367.86
[2], x1 = 0.5003	–	1260.78
[2], x1 = 0.5704	–	1197.33
[2], x1 = 0.6285	–	1146.9
[2], x1 = 0.7046	–	1083.68
[2], x1 = 0.7684	–	1032.96
[2], x1 = 0.8513	–	970.06
[2], x1 = 0.9156	–	923.4
